These results are taken from patent US8546377B2 (AbbVie Inc., priority 2009, dated 2013).

One assay deals with T1, 5HT2B receptors (Homo sapiens, UniProt P41595).
T1 construct: expressed in transfected cells; host or cells: CHO-K1 cells
Briefly: Human 5-HT2B functional assay in CHO-K1 cells (calcium flux, FLIPR). Format: cell-based. The procedure: (§1) (iii) Human 5-HT2C and 5-HT2B Functional Assay in CHO-K1 Cells
(§2) CHO-K1 cells over-expressing 5HT2C or 5HT2B receptors were grown in 1272 cm^2 flasks to 70-80% confluency in UltraCHO media supplemented with 1% dialyzed fetal bovine serum (FBS), 250 μg/mL zeocin, 100 U/mL penicillin/streptomycin, and 400 μg/mL geneticin. The cells were dissociated from the flasks using 0.05% trypsin, resuspended in freezing media and stored in liquid nitrogen until use. Calcium flux experiments were done using frozen cells. The cells were diluted in media containing 1% dialyzed FBS and 100 U/mL penicillin/streptomycin and plated into 384-well poly-D-Lysine coated plates (15,000 cells/well). Then the plates were incubated overnight in a cell incubator at 37° C., 5% CO2. On the next day, the growth media was replaced with media without FBS and further incubated overnight. On day three, the changes in intracellular Ca^2+ were determined using calcium sensitive fluorescent dye, Ca4 (MDS Analytical Technologies, Sunnyvale, Calif.) by loading 15 μL of diluted dye with 2.5 mM probenecid into the cells containing media and incubated at room temperature for 60 minutes in dark.
(§3) Fluorescence measurements were read at 25° C. at an excitation wavelength of 480 nm and an emission wavelength of 530 nm in FLIPR (MDS). Baseline fluorescence was measured for the first 10 seconds and then 15 μL of 4× concentrations of serotonin/test compounds was added to the cell plate. The fluorescence intensity was captured every second for the first 1 minute followed by every 5 seconds for an additional 2 minutes. The increase in fluorescent response was determined and was normalized to the response of serotonin. The concentration response of compounds was done from a starting concentration of 10 μM, 1:10 dilution across 6 wells with a final dimethyl sulfoxide concentration of 0.2% and was fitted using a 4-parameter logistic equation. The concentration at which a compound exerts half its maximal effect was named as ‘effective concentration 50’ or ‘EC50’.
(§4) Emax is the maximum functional response or efficacy expressed as a percentage relative to the effect of serotonin.
A general note: Calcium assays in cells follow changes in intracellular calcium, usually with a dye or a luminescent sensor.

The next assay has as its target T2, 5HT2C receptors (Homo sapiens, UniProt P28335).
T2 sequence (P28335 33-458): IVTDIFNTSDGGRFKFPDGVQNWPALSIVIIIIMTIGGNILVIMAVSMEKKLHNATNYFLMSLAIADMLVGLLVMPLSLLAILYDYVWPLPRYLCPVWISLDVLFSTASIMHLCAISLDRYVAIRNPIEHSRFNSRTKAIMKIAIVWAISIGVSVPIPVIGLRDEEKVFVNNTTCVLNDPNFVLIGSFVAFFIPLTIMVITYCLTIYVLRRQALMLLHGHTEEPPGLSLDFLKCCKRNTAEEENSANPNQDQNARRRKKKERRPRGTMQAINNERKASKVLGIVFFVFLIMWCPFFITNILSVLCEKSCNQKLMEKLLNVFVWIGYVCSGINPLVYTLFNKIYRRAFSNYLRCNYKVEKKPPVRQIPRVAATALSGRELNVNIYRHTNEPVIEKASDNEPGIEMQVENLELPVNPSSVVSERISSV
Briefly: Human 5-HT2C functional assay in CHO-K1 cells (calcium flux, FLIPR). Format: cell-based. Details: expressed in transfected cells; host or cells: CHO-K1 cells. The procedure:
as §1, §2, §3, §4

Where [1] appears, read: CHO-K1 cells over-expressing 5HT2B, calcium flux, read-out: EC50 (μM), 5-HT2B Agonist Activity.
The mark [2] stands for this setting: CHO-K1 cells over-expressing 5HT2C, calcium flux, read-out: EC50 (μM), 5-HT2c Agonist Activity.
Where [3] appears, read: CHO-K1 cells, percentage relative to the effect of serotonin, read-out: Emax (%), 5-HT2c Agonist Activity.
Where [4] appears, read: CHO-K1, read-out: Emax (%), 5-HT2B Agonist Activity.
[5] abbreviates: CHO-K1, read-out: Emax (%), 5-HT2c Agonist Activity, CHO-K1 cells, percentage relative to the effect of serotonin.
Setting [6] is: CHO-K1 cells, percentage relative to the effect of serotonin, read-out: Emax (%), 5-HT2B Agonist Activity.

One may read the EC50 as the concentration that produces a half-maximal response. By Emax is commonly meant the greatest response seen or fitted, relative to the assay's reference.

Structures are written as SMILES. Like-named read-outs stand apart in the source and are kept apart here.

T1 sequence (P41595 whole entry): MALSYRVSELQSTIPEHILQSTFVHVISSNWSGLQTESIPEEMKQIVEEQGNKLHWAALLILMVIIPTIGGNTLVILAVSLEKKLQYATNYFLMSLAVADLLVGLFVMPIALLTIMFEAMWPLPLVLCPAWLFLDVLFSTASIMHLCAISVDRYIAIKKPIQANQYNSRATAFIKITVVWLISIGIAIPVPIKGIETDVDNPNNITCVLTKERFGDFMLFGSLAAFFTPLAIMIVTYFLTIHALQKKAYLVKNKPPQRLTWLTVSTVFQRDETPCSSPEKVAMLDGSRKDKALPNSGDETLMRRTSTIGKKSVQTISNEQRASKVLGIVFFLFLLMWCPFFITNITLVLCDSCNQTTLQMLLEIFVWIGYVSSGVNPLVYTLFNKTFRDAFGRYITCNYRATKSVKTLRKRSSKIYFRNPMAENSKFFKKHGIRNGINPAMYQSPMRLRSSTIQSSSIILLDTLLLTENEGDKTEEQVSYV

As to `C[C@H](Cc1ccccc1)Oc1ccc2c(c1)N1CCNCC1CC(=O)N2` (stereo partly drawn) [Example 159, 10-{[(2R)-1-phenylpropan-2-yl]oxy}-1,2,3,4,4a,5-hexahydropyrazino[1,2-a][1,5]benzodiazepin-6(7H)-one], the figures for the EC50 on 5HT2B receptors (setting [1]) and on 5HT2C receptors (setting [2]) were > 10 µM and 0.00402 µM, respectively. On 5HT2C receptors (setting [3]), the Emax is > 120%.
As to `Fc1cccc2c1N1CCNC[C@@H]1CCO2` [Example 272, (4aS)-11-fluoro-2,3,4,4a,5,6-hexahydro-1H-pyrazino[2,1-d][1,5]benzoxazepine], the EC50 is 0.05 µM on 5HT2B receptors and 0.005 µM at 5HT2C receptors. For the same compound, the Emax is 30% at 5HT2B receptors (setting [4]) and 85% on 5HT2C receptors (setting [5]).
As to `CCc1cccc2c1OCC[C@H]1CNCCN21` [Example 237, (4aS)-8-ethyl-2,3,4,4a,5,6-hexahydro-1H-pyrazino[2,1-d][1,5]benzoxazepine], the EC50 at 5HT2B receptors is > 10 µM; on 5HT2C receptors, 0.005 µM. Besides, the Emax on 5HT2C receptors (setting [5]) was 90%.
With `O=C1CC2CNCCN2c2cc(-c3ccc4ccccc4c3)ccc2N1` (stereo not shown) [Example 57, 10-(2-naphthyl)-1,2,3,4,4a,5-hexahydropyrazino[1,2-a][1,5]benzodiazepin-6(7H)-one], the EC50 on 5HT2B receptors (setting [1]) is > 10 µM; at 5HT2C receptors (setting [2]), 0.9 µM. In addition, at 5HT2C receptors (setting [3]), the Emax came out at 100%.
As for `COc1cccc(-c2ccc3c(c2)N2CCNC[C@@H]2CCO3)c1` [Example 193, (4aS)-10-(3-methoxyphenyl)-2,3,4,4a,5,6-hexahydro-1H-pyrazino[2,1-d][1,5]benzoxazepine], the values for the EC50 at 5HT2B receptors (setting [1]) and on 5HT2C receptors (setting [2]) were 1 µM and 0.008 µM, respectively. The Emax on 5HT2B receptors (setting [6]) was 25%; at 5HT2C receptors (setting [3]), > 120%.
On the same counts, the results for `O=C1C[C@H]2CNCCN2c2cc(OCCc3cccc(Cl)c3)ccc2N1` [Example 175, (4aS)-10-[2-(3-chlorophenyl)ethoxy]-1,2,3,4,4a,5-hexahydropyrazino[1,2-a][1,5]benzodiazepin-6(7H)-one] are 0.5 µM, 0.001 µM, 20% and > 120%.
Regarding `c1cncc(-c2ccc3c(c2)N2CCNC[C@@H]2CCO3)c1` [Example 206, (4aS)-10-(pyridin-3-yl)-2,3,4,4a,5,6-hexahydro-1H-pyrazino[2,1-d][1,5]benzoxazepine], the results for the EC50 at 5HT2B receptors and on 5HT2C receptors were > 10 µM and 0.07 µM, respectively. In addition, the Emax on 5HT2C receptors (setting [5]) was > 120%.
As for `O=C1CC2CNCCN2c2cc(COc3cccc(F)c3)ccc2N1` (stereo not shown) [Example 114, 10-[(3-fluorophenoxy)methyl]-1,2,3,4,4a,5-hexahydropyrazino[1,2-a][1,5]benzodiazepin-6(7H)-one], the EC50 amounted to 0.4 µM at 5HT2B receptors (setting [1]) and 0.05 µM on 5HT2C receptors (setting [2]). Besides, the Emax was 30% on 5HT2B receptors (setting [6]) and > 120% on 5HT2C receptors (setting [3]).
On the same counts, the results for `CC(=O)c1ccc(-c2ccc3c(c2)N2CCNC[C@@H]2CCO3)cc1` [Example 199, 1-{4-[(4aS)-2,3,4,4a,5,6-hexahydro-1H-pyrazino[2,1-d][1,5]benzoxazepin-10-yl]phenyl}ethanone] are 8 µM, 0.9 µM, 10% and > 120%.
On to `CCC(C)Oc1ccc2c(c1)N1CCNC[C@@H]1CC(=O)N2` (stereo partly drawn) [Example 174, (4aS)-10-sec-butoxy-1,2,3,4,4a,5-hexahydropyrazino[1,2-a][1,5]benzodiazepin-6(7H)-one], for which the EC50 is > 10 µM on 5HT2B receptors (setting [1]) and 0.007 µM on 5HT2C receptors (setting [2]). Also, the Emax at 5HT2C receptors (setting [3]) was > 120%.
Taken in the same sequence, the figures for `O=C1CC2CNCCN2c2cc(-c3cccc4[nH]ccc34)ccc2N1` (stereo not shown) [Example 68, 10-(1H-indol-4-yl)-1,2,3,4,4a,5-hexahydropyrazino[1,2-a][1,5]benzodiazepin-6(7H)-one] were > 10 µM, 0.09 µM and > 120%.
Consider `C[C@H]1C[C@H]2CNCCN2c2ccccc2O1` (single isomer, unassigned) [Example 253], for which the EC50 on 5HT2B receptors is > 10 µM; on 5HT2C receptors it was 0.09 µM. Besides, the Emax at 5HT2C receptors (setting [5]) is 100%.
Take `COc1ccccc1-c1ccc2c(c1)N1CCNCC1CC(=O)N2` (stereo not shown) [Example 63, 10-(2-methoxyphenyl)-1,2,3,4,4a,5-hexahydropyrazino[1,2-a][1,5]benzodiazepin-6(7H)-one]: the EC50 at 5HT2B receptors (setting [1]) is > 10 µM; at 5HT2C receptors (setting [2]), 0.09 µM. In addition, the Emax at 5HT2C receptors (setting [3]) came out at 110%.
In the case of `C[C@@H](Oc1ccc2c(c1)N1CCNC[C@@H]1CC(=O)N2)c1cc(F)ccc1F` [Example 178, (4aS)-10-[(1R)-1-(2,5-difluorophenyl)ethoxy]-1,2,3,4,4a,5-hexahydropyrazino[1,2-a][1,5]benzodiazepin-6(7H)-one], the EC50 on 5HT2B receptors (setting [1]) was determined as 0.04 µM; at 5HT2C receptors (setting [2]), 0.001 µM. For the same compound, the values for the Emax at 5HT2B receptors (setting [6]) and at 5HT2C receptors (setting [3]) were 45% and 100%, respectively.
Regarding `COc1ccc2c(c1)OCC[C@H]1CNCCN21` [Example 134, (4aS)-9-methoxy-2,3,4,4a,5,6-hexahydro-1H-pyrazino[2,1-d][1,5]benzoxazepine], the EC50 at 5HT2B receptors (read-out: EC50 (μM), 5-HT2B Agonist Activity, CHO-K1 cells over-expressing 5HT2B, calcium flux) is > 10 µM; at 5HT2C receptors (read-out: EC50 (μM), 5-HT2c Agonist Activity, CHO-K1 cells over-expressing 5HT2C, calcium flux), 0.05 µM. For the same compound, the “Emax (%), 5-HT2c Agonist Activity” value on 5HT2C receptors (CHO-K1 cells, percentage relative to the effect of serotonin) is given as 100%.
Take `O=C1CC2CNCCN2c2cc(-c3cccc4ccccc34)ccc2N1` (stereo not shown) [Example 67, 10-(1-naphthyl)-1,2,3,4,4a,5-hexahydropyrazino[1,2-a][1,5]benzodiazepin-6(7H)-one]: the EC50 is > 10 µM on 5HT2B receptors (setting [1]) and 0.2 µM at 5HT2C receptors (setting [2]). Besides, the Emax on 5HT2C receptors (setting [3]) came out at 110%.
Taken in the same sequence, the figures for `CCc1cccc(-c2ccc3c(c2)N2CCNCC2CC(=O)N3)c1` (stereo not shown) [Example 91, 10-(3-ethylphenyl)-1,2,3,4,4a,5-hexahydropyrazino[1,2-a][1,5]-benzodiazepin-6(7H)-one] were > 10 µM, 0.01 µM and > 120%.
In the case of `Cc1ccc2c(c1)N1CCNC[C@@H]1CCO2` [Example 137, (4aS)-10-methyl-2,3,4,4a,5,6-hexahydro-1H-pyrazino[2,1-d][1,5]benzoxazepine], the EC50 at 5HT2B receptors is 0.05 µM; at 5HT2C receptors, 0.002 µM. For the same compound, the Emax at 5HT2B receptors (setting [4]) was 60%; at 5HT2C receptors (setting [5]), > 120%.
For the compound `FC(F)(F)c1ccc2c(c1)N1CCNC[C@@H]1CCO2` [Example 217, (4aS)-10-(trifluoromethyl)-2,3,4,4a,5,6-hexahydro-1H-pyrazino[2,1-d][1,5]benzoxazepine], the EC50 on 5HT2B receptors (setting [1]) worked out at 0.09 µM; at 5HT2C receptors (setting [2]), 0.01 µM. The Emax on 5HT2B receptors (setting [6]) came out at 70%; on 5HT2C receptors (setting [3]) it was 100%.
Consider `O=C1CC2CNCCN2c2cc(/C=C/c3ccccc3C(F)(F)F)ccc2N1` (stereo not shown) [Example 142, 10-{(E)-2-[2-(trifluoromethyl)phenyl]vinyl}-1,2,3,4,4a,5-hexahydropyrazino[1,2-a][1,5]benzodiazepin-6(7H)-one], for which the EC50 at 5HT2B receptors (setting [1]) is > 10 µM; at 5HT2C receptors (setting [2]) it was 0.08 µM. The Emax on 5HT2C receptors (setting [3]) was > 120%.
As for `O=C1CC2CNCCN2c2cc(-c3cccc(OC(F)(F)F)c3)ccc2N1` (stereo not shown) [Example 93, 10-[3-(trifluoromethoxy)phenyl]-1,2,3,4,4a,5-hexahydropyrazino[1,2-a][1,5]benzodiazepin-6(7H)-one], the EC50 at 5HT2B receptors (setting [1]) was > 10 µM; on 5HT2C receptors (setting [2]) it was 0.007 µM. Also, the Emax at 5HT2C receptors (setting [3]) is > 120%.
In the case of `O=C1CC2CNCCN2c2cc(/C=C/c3ccccc3F)ccc2N1` (stereo not shown) [Example 141, 10-[(E)-2-(2-fluorophenyl)vinyl]-1,2,3,4,4a,5-hexahydropyrazino[1,2-a][1,5]benzodiazepin-6(7H)-one], the EC50 at 5HT2C receptors (setting [2]) was determined as 0.004 µM. Moreover, on 5HT2C receptors (setting [3]), the Emax is 88%.
